Measurements: paper PMC11259170, “Small-molecule probe for IBD risk variant GPR65 I231L alters cytokine signaling networks through positive allosteric modulation” (Science Advances, 2024)
Converted amounts (≈) assume the structure as drawn. Like-named read-outs stand apart in the source and are kept apart here.

Legend:
hGPR4-SmBiT = biological target: T1, hGPR4-SmBiT (Homo sapiens, UniProt P46093); assay: Nano-BiT target engagement, LgBiT-mGs recruitment to hGPR4-SmBiT; type: cell-based; conditions: 10 μM
T1 construct: expressed in transfected cells; host or cells: Expi293F (Gibco), transient transfection
T1 sequence (P46093 whole entry): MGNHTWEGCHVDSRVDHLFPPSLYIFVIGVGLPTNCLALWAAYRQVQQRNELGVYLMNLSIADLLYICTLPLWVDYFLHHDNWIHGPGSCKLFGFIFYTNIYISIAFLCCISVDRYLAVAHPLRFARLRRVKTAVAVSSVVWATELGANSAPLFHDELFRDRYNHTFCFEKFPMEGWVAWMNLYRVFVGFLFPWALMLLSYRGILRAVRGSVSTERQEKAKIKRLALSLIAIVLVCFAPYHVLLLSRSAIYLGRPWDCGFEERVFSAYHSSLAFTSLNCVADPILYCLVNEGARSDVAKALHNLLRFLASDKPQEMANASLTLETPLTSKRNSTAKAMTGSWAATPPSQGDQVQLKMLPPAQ
Experimental: (§1) Target engagement was measured in Expi293F (Gibco, 100044202) cells using the Nano-Glo Live Cell Assay System (Promega, N2011). Nano-BiT plasmids were cloned from GPR65-, GPR4-, and GPR68-Tango plasmids. GPR65-Tango (Addgene plasmid # 66370; http://n2t.net/addgene:66370; RRID:Addgene_66370), GPR4-Tango (Addgene plasmid # 66358; http://n2t.net/addgene:66358; RRID:Addgene_66358), and GPR68-Tango (Addgene plasmid # 66371; http://n2t.net/addgene:66371; RRID:Addgene_66371) were gifts from Bryan Roth. Expi293F cells were transfected 1 day before kinetics with 500 ng of each plasmid using ExpiFectamine 293 Transfection Kit (Gibco, A14525). After 24 hours, cells were collected, washed, and resuspended in room temperature 0.1% PBS-BSA, adjusted to pH 7.4 using 1 M NaOH. Cells were transferred to white opaque 96-well microplates (100 μl per well, PerkinElmer, 6005290), followed by addition of the Nano-Glo Live Cell Reagent (25 μl per well). Baseline luminescence was measured for 10 cycles (1 cycle = 90 s) before adding compounds. All luminescence measurements were made on BMG Labtech PHERAstar FSX. Data analysis was performed using GraphPad Prism.

Lipophilicity (logD) = type: physicochemical
[1] = system: WT HeLa cells expressing hGPR65; assay: Cytotoxicity assay (CellTiter-Glo, 72 hours); type: cell-based, human
Experimental: WT HeLa cells expressing hGPR65 were seeded at 2000 cells per well in 384-well plates. Compounds were tested in 10-point dose, starting at 50 μM. Cells were incubated with compounds for 72 hours at 37°C, 5% CO2. Cytotoxicity was measured using CellTiter-Glo Luminescent Cell Viability Assay (Promega, G7572) according to the manufacturer’s protocol. Luminescence measurements were made on BMG Labtech PHERAstar FSX. Data analysis was performed using GraphPad Prism.

hGPR65 I231L-SmBiT = biological target: T2, hGPR65 I231L-SmBiT (Homo sapiens, UniProt Q8IYL9, I231L); assay: Nano-BiT target engagement, LgBiT-mGs recruitment to hGPR65 I231L-SmBiT; type: cell-based; conditions: 10 μM
T2 construct: expressed in transfected cells; host or cells: Expi293F (Gibco), transient transfection
T2 sequence (Q8IYL9 whole entry I231L): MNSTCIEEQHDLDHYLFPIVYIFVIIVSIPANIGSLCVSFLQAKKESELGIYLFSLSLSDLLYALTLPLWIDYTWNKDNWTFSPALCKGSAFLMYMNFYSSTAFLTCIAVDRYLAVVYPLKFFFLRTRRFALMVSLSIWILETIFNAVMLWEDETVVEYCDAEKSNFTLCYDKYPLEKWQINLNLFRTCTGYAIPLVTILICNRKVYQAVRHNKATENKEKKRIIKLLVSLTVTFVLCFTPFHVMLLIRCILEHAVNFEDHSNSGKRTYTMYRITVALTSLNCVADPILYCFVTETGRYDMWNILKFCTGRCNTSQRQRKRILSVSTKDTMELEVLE
Experimental: as §1

[2] = Solubility in phosphate buffer; type: physicochemical; conditions: read-out: solubility in phosphate buffer
hGPR65 = biological target: T3, hGPR65 (Homo sapiens, UniProt Q8IYL9); assay: cAMP detection in HeLa expression cell line, hGPR65; type: cell-based; conditions: for Emax: HeLa, relative to 100uM forskolin (100%) and DMSO (0%), read-out: hGPR Max Activity %
T3 construct: expressed in transfected cells; host or cells: HeLa (ATCC CCL-2), lentiviral transduction, pLX317
T3 sequence (Q8IYL9 whole entry): as the sequence (Q8IYL9 whole entry I231L) above, with L231I counted along it
Summary of the method: (§2)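 Compound was dispensed from a 10 mM DMSO stock, and puromycin-selected HeLa lines carrying lentiviral V5-tagged receptor were added at 1500 cells/well in pH 7.2 stimulation buffer. After 30 min stimulation at room temperature, cells were lysed and detection ran 1 h in the dark before cAMP TR-FRET reading.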

hGPR65-SmBiT = biological target: T4, hGPR65-SmBiT (Homo sapiens, UniProt Q8IYL9); assay: Nano-BiT target engagement, LgBiT-mGs recruitment to hGPR65-SmBiT in Expi293F cells; type: cell-based; conditions: 10 μM
T4 construct: expressed in transfected cells; host or cells: Expi293F (Gibco), transient transfection
T4 sequence (Q8IYL9 whole entry): as the sequence (Q8IYL9 whole entry I231L) above, with L231I counted along it
Experimental: as §1

mGPR65 = biological target: T5, mGPR65 (Mus musculus, UniProt Q61038); assay: cAMP detection in HeLa expression cell line, mGPR65; type: cell-based; conditions: for Emax: HeLa, relative to 100uM forskolin (100%) and DMSO (0%), read-out: mGPR Max Activity %; for EC50: mGPR EC50 (uM)
T5 construct: expressed in transfected cells; host or cells: HeLa (ATCC CCL-2), lentiviral transduction, pLX317
T5 sequence (Q61038 whole entry): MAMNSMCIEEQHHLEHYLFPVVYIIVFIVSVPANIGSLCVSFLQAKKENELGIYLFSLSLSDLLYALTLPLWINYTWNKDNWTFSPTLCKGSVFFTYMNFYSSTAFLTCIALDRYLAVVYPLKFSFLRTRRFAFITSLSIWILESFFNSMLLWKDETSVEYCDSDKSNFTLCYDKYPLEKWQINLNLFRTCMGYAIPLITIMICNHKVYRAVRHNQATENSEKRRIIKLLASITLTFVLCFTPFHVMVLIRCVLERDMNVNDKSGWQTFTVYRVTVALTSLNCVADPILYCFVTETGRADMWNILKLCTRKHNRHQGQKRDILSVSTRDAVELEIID
Summary of the method: as §2

mGPR65-SmBiT = biological target: T6, mGPR65-SmBiT (Mus musculus, UniProt Q61038); assay: Nano-BiT target engagement, LgBiT-mGs recruitment to mGPR65-SmBiT; type: cell-based; conditions: 10 μM
T6 construct: expressed in transfected cells; host or cells: Expi293F (Gibco), transient transfection
T6 sequence (Q61038 whole entry): as above
Experimental: as §1

[3] = 2nd mGPR column pair, NA = no activity

In the case of `Cc1ccc(NC(=O)c2cnn3c(O)cc(-c4ccc(COC(C)C)cc4)nc23)c(F)c1` [BRD5080, O=C(NC1=C(F)C=C(C)C=C1)C2=C3N(N=C2)C(O)=CC(C4=CC=C(COC(C)C)C=C4)=N3], the “response in cells expressing hGPR4-SmBiT” value (hGPR4-SmBiT) is reported as “failing to elicit responses”, the logD (Lipophilicity (logD); pH 7.4, pH7.4, read-out: LogD (pH7.4)) is reported as 3.65 and the logD (Lipophilicity (logD); read-out: lipophilicity (logD)) is reported as 3.62. The cell viability ([1]; 50 μM, 72 hours) was “slight decrease in cell viability”, the cytotoxicity ([1]; 72-hour incubation, 0-50 μM) was “not cytotoxic” and the “G protein recruitment in cells expressing hGPR65 I231L” value (hGPR65 I231L-SmBiT) was “able to recruit G protein”. The solubility [2] was 13.6 µM (≈ 5.91 µg/mL), the “mode of action from pH-dependent cAMP production” value (hGPR65; 0 to 50 μM, pH range of 6.6 to 7.6) was “PAMs” and the “activity for hGPR65 among prioritized molecules” value (hGPR65; 1.56 μM, pH 7.2) was “highest activity”. It also gave an Emax (hGPR65; 1st hGPR column pair, NA = no activity) of 80%, an Emax (hGPR65; 2nd hGPR column pair, NA = no activity) of 70.4% and an EC50 (hGPR65; hGPR EC50 (uM), NA = no activity) of 0.856 µM. For the same compound, the EC50 (hGPR65; hGPR EC50 (uM), pH 7.2, 30 min) was 1.41 µM, the EC50 (hGPR65; hGPR EC50, NA = no activity) was 1.66 µM and the EC50 (hGPR65; hGPR EC50, pH 7.2, 30 min) was 1.5 µM. The “cAMP activity, hGPR65” value (hGPR65; pH 7.2) was “at least 40%”, the “mGs recruitment / engagement of hGPR65” value (hGPR65-SmBiT) was “showed engagement” and the “activity after HCl versus water, hGPR65” value (hGPR65-SmBiT; HCl or H2O at cycle 10) was “showed activity when preceded by the addition of HCl but not water”. The “activity for mGPR65 among prioritized molecules” value (mGPR65; 1.56 μM, pH 7.2) was “highest activity”, the “cAMP response against mGPR65 among prioritized compounds” value (mGPR65; HeLa cells) was “highest cAMP response” and the Emax (mGPR65; [3]) was 56%. It also gave an Emax (mGPR65; NA = no activity) of 63.5%, an EC50 (mGPR65; [3]) of 0.371 µM and an EC50 (mGPR65; first pair of columns, pH 7.2, 30 min) of 0.432 µM. For the same compound, the EC50 (mGPR65; second pair of columns, pH 7.2, 30 min) was 0.653 µM, the EC50 (mGPR65; NA = no activity) was 0.0578 µM and the “cAMP activity, mGPR65” value (mGPR65; pH 7.2) was “at least 40%”. The “mGs recruitment / engagement of mGPR65” value (mGPR65-SmBiT) was “showed engagement” and the “activity after HCl versus water, mGPR65” value (mGPR65-SmBiT; HCl or H2O at cycle 10) was “showed activity when preceded by the addition of HCl but not water”.
